Assay results: patent US9242984B2, “Pyrazolyl derivatives as Syk inhibitors” (Merck Sharp & Dohme Corp., priority 2012, dated 2016)
pIC50: −log10 of the molar value. Read-outs that look alike come from different tables or passages of the source.

Target: T1, recombinant human Syk (GST-hSyk fusion protein) (Homo sapiens, UniProt P43405)
T1 construct: purchased Carna Biosciences 08-176
Assay: Homogeneous Time-Resolved Fluorescence (HTRF) assay for the recombinant human Syk enzyme
Assay type: biochemical
Conditions: 10-dose titration, 25 μM ATP
Method in brief: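 IC50 came from a four-parameter fit over ten doses, 10 μM to 0.508 nM, with HTRF read-out (Eu-anti-pTyr antibody, SA-APC, EDTA stop, 30 min). The enzyme, 5 pM GST-hSyk, met compound for 10 min, then phosphorylated 250 nM biotin-peptide with 25 μM ATP and 5 mM Mg for 45 min at room temperature, pH 7.5.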

[1] = IC50 class, read-out: rhSYK Activity

Row | pIC50 [1] | pIC50 (read-out: rhSYK IC50) | SMILES
1 | ≥ 7.00 |  | Cc1cc(Nc2nccc(C(F)(F)F)n2)cc(-c2cnn(C[C@H](N)C(N)=O)c2)c1 [Example 7.2, 3-[4-(3-methyl-5-{[4-(trifluoro-methyl)pyrimidin-2-yl]amino}phenyl)-1H-pyrazol-1-yl]-1-alaninamide]
2 | ≥ 7.00 |  | Cc1cc(Nc2nccc(C(F)(F)F)n2)cc(-c2cnn(C[C@@H](O)C(N)=O)c2)c1 [Example 7.3, (2R)-2-hydroxy-3-[4-(3-methyl-5-{[4-(trifluorometh-yl)pyrimidin-2-yl]amino}-phenyl)-1H-pyrazol-1-yl]propanamide]
3 | ≥ 7.00 |  | Cc1cc(Nc2nccc(C(F)(F)F)n2)cc(-c2cnn(C[C@H](O)C(N)=O)c2)c1 [Example 7.4, (2S)-2-hydroxy-3-[4-(3-methyl-5-{[4-(trifluorometh-yl)pyrimidin-2-yl]amino}-phenyl)-1H-pyrazol-1-yl]propanamide]
4 | ≥ 7.00 |  | Cc1cc(Nc2nccc(C(F)(F)F)n2)cc(-c2cnn(C(C)C(O)C(N)=O)c2)c1 (stereo not drawn) [Example 7.5, 2-hydroxy-3-[4-(3-methyl-5-{[4-(trifluorometh-yl)pyrimidin-2-yl]amino}-phenyl)-1H-pyrazol-1-yl]butanamide]
5 | ≥ 7.00 |  | Cc1cc(Nc2nccc(C(F)(F)F)n2)cc(-c2cnn(C(C)C(O)C(N)=O)c2)c1 (stereo not drawn) [Example 7.6, 2-hydroxy-3-[4-(3-methyl-5-{[4-(trifluorometh-yl)pyrimidin-2-yl]amino}-phenyl)-1H-pyrazol-1-yl]butanamide]
6 | ≥ 7.00 |  | Cc1cc(Nc2nccc(C(F)(F)F)n2)cc(-c2cnn(C[C@@H](O)C(N)=O)c2)c1 [Example 8.2, (2R)-2-hydroxy-3-[4-(3-methyl-5-{[4-(trifluorometh-yl)pyrimidin-2-yl]amino}phenyl)-1H-pyrazol-1-yl]propanamide]
7 | ≥ 7.00 |  | Cc1cc(Nc2nccc(C(F)(F)F)n2)cc(-c2cnn(C[C@H](O)C(N)=O)c2)c1 [Example 8.4, (2S)-2-hydroxy-3-[4-(3-methyl-5-{[4-(trifluoromethyl)-pyrimidin-2-yl]amino}-phenyl)-1H-pyrazol-1-yl]propanamide]
8 | ≥ 7.00 |  | Cc1cc(Nc2nccc(OCCO)n2)cc(-c2cnn(C3CCC(C(N)=O)CC3)c2)c1 (stereo not drawn) [Example 8.5, 4-[4-(3-{[4-(2-hydroxy-ethoxy)pyrimidin-2-yl]amino}-5-methylphenyl)-1H-pyrazol-1-yl]-cyclo-hexanecarboxamide]

More lines, now with the values behind:

Row | SMILES | pIC50 [1] | pIC50 (read-out: rhSYK IC50)
9 | Cc1cc(Nc2nccc(C(F)F)n2)cc(-c2cnn(CC(C)(C)O)c2)c1 [Example 5.35, 1-[4-(3-{[4-(difluoromethyl)pyrimidin-2-yl]amino}-5-methylphenyl)-1H-pyrazol-1-yl]-2-methylpropan-2-ol] | ≥ 7.00 | 
10 | Cc1cc(Nc2nccc(C(F)F)n2)cc(-c2cnn(CC(O)C(=O)O)c2)c1 (stereo not drawn) [Example 5.36, 3-[4-(3-{[4-(difluoromethyl)pyrimidin-2-yl]amino}-5-methylphenyl)-1H-pyrazol-1-yl]-2-hydroxypropanoic acid] | ≥ 7.00 | 
11 | Cc1cc(Nc2nccc(C(F)F)n2)cc(-c2cnn(CC(O)CN)c2)c1 (stereo not drawn) [Example 5.37, 1-amino-3-[4-(3-{[4-(difluoromethyl)pyrimidin-2-yl]amino}-5-methylphenyl)-1H-pyrazol-1-yl]propan-2-ol] | ≥ 7.00 | 
12 | Cc1cc(Nc2nccc(C(F)(F)F)n2)cc(-c2cnn(C3CCC(C(=O)O)CC3O)c2)c1 (stereo not drawn) [Example 5.38, 3-hydroxy-4-[4-(3-methyl-5-{[4-(trifluoromethyl)pyrimidin-2-yl]amino}phenyl)-1H-pyrazol-1-yl]cyclohexanecarboxylic acid] | ≥ 7.00 | 
13 | Cc1cc(Nc2nccc(C(F)(F)F)n2)cc(-c2cnn(C3CCC(C(=O)O)CC3O)c2)c1 (stereo not drawn) [Example 5.39, 3-hydroxy-4-[4-(3-methyl-5-{[4-(trifluoromethyl)pyrimidin-2-yl]amino}phenyl)-1H-pyrazol-1-yl]cyclohexane-carboxylic acid] | ≥ 7.00 | 
14 | Cc1cc(Nc2nccc(C(F)F)n2)cc(-c2cnn(C[C@]3(O)C[C@H](C#N)C3)c2)c1 [Example 5.40, trans-3-{[4-(3-{[4-(difluoromethyl)pyrimidin-2-yl]amino}-5-methylphenyl)-1H-pyrazol-1-yl]methyl}-3-hydroxycyclobutane-carbonitrile] | ≥ 7.00 | 
15 | Cc1cc(Nc2nccc(C(F)F)n2)cc(-c2cnn(CC3(O)CCC3)c2)c1 [Example 5.41, 1-{[4-(3-{[4-(difluoromethyl)pyrimidin-2-yl]amino}-5-methylphenyl)-1H-pyrazol-1-yl]methyl}cyclobutanol] | ≥ 7.00 | 
16 | Cc1cc(Nc2nccc(C(F)F)n2)cc(-c2cnn(CC3(O)CCS(=O)(=O)CC3)c2)c1 [Example 5.42, 4-{[4-(3-{[4-(difluoromethyl)pyrimidin-2-yl]amino}-5-methylphenyl)-1H-pyrazol-1-yl]methyl}tetrahydro-2H-thiopyran-4-ol 1,1-dioxide] | ≥ 7.00 | 
17 | Cc1cc(Nc2nccc(C(F)(F)F)n2)cc(-c2cnn(C[C@H](O)C(=O)NCCO)c2)c1 [Example 6.1, (2S)-2-hydroxy-N-(2-hydroxyethyl)-3-[4-(3-methyl-5-{[4-(trifluoromethyl)pyrimidin-2-yl]amino}phenyl)-1H-pyrazol-1-yl]propanamide] | ≥ 7.00 | 7.68
18 | Cc1cc(Nc2nccc(OCCO)n2)cc(-c2cnn(C[C@H](O)C(N)=O)c2)c1 [Example 6.2, (2S)-2-hydroxy-3-[4-(3-{[4-(2-hydroxyethoxy)pyrimidin-2-yl]amino}-5-methylphenyl)-1H-pyrazol-1-yl]propanamide] | ≥ 7.00 | 
19 | Cc1cc(Nc2nccc(C)n2)cc(-c2cnn(C[C@H](O)C(N)=O)c2)c1 [Example 6.3, (2S)-2-hydroxy-3-(4-{3-methyl-5-[(4-methylpyrimidin-2-yl)amino]phenyl}-1H-pyrazol-1-yl)propanamide] | ≥ 7.00 | 
20 | COc1ccnc(Nc2cc(C)cc(-c3cnn(C[C@H](O)C(N)=O)c3)c2)n1 [Example 6.4, (2S)-2-hydroxy-3-(4-{3-[(4-methoxypyrimidin-2-yl)amino]-5-methylphenyl}-1H-pyrazol-1-yl)propanamide] | ≥ 7.00 | 
21 | Cc1cc(Nc2nccc(C3CC3)n2)cc(-c2cnn(C[C@H](O)C(N)=O)c2)c1 [Example 6.5, (2S)-3-(4-{3-[(4-cyclopropyl-pyrimidin-2-yl)amino]-5-methylphenyl}-1H-pyrazol-1-yl)-2-hydroxypropan-amide] | ≥ 7.00 | 
22 | Cc1cc(Nc2nccc(OC(C)C)n2)cc(-c2cnn(C[C@H](O)C(N)=O)c2)c1 [Example 6.6, (2S)-2-hydroxy-3-[4-(3-methyl-5-{[4-(1-methyl-ethoxy)pyrimidin-2-yl]amino}-phenyl)-1H-pyrazol-1-yl]-propanamide] | ≥ 7.00 | 
23 | Cc1cc(Nc2nccc(C(C)(C)C)n2)cc(-c2cnn(C[C@H](O)C(N)=O)c2)c1 [Example 6.7, (2S)-3-(4-{3-[(4-tert-butyl-pyrimidin-2-yl)amino]-5-methylphenyl}-1H-pyrazol-1-yl)-2-hydroxy-propanamide] | ≥ 7.00 | 
24 | Cc1cc(Nc2nccc(C(C)F)n2)cc(-c2cnn(C[C@H](O)C(N)=O)c2)c1 (stereo partly drawn) [Example 6.8, (2S)-3-[4-(3-{[4-(1-fluoroethyl)-pyrimidin-2-yl]amino}-5-methylphenyl)-1H-pyrazol-1-yl]-2-hydroxy-propanamide] | ≥ 7.00 | 
25 | Cc1cc(Nc2nccc(C(C)C)n2)cc(-c2cnn(C[C@H](O)C(N)=O)c2)c1 [Example 6.9, (2S)-2-hydroxy-3-[4-(3-methyl-5-{[4-(1-methyl-ethyl)pyrimidin-2-yl]-amino}phenyl)-1H-pyrazol-1-yl]propanamide] | ≥ 7.00 | 
26 | Cc1cc(Nc2nccc(C(F)(F)F)n2)cc(-c2cnn(C[C@H](O)C(=O)NCCCN3CCCC3=O)c2)c1 [Example 6.10, (2S)-2-hydroxy-3-[4-(3-methyl-5-{[4-(trifluorometh-yl)pyrimidin-2-yl]amino}phenyl)-1H-pyrazol-1-yl]-N-[3-(2-oxopyrrolidin-1-yl)propyl]propan-amide] | 6.00 to 7.00 | 
27 | CNC(=O)[C@@H](O)Cn1cc(-c2cc(C)cc(Nc3nccc(C(F)(F)F)n3)c2)cn1 [Example 6.11, (2S)-2-hydroxy-N-methyl-3-[4-(3-methyl-5-{[4-(trifluorometh-yl)pyrimidin-2-yl]amino}phenyl)-1H-pyrazol-1-yl]propanamide] | ≥ 7.00 | 
28 | COCCCNC(=O)[C@@H](O)Cn1cc(-c2cc(C)cc(Nc3nccc(C(F)(F)F)n3)c2)cn1 [Example 6.12, (2S)-2-hydroxy-N-(3-methoxypropyl)-3-[4-(3-methyl-5-{[4-(trifluorometh-yl)pyrimidin-2-yl]amino}phenyl)-1H-pyrazol-1-yl]propanamide] | ≥ 7.00 | 
29 | COCCNC(=O)[C@@H](O)Cn1cc(-c2cc(C)cc(Nc3nccc(C(F)(F)F)n3)c2)cn1 [Example 6.13, (2S)-2-hydroxy-N-(2-methoxyethyl)-3-[4-(3-methyl-5-{[4-(trifluorometh-yl)pyrimidin-2-yl]amino}phenyl)-1H-pyrazol-1-yl]propanamide] | ≥ 7.00 | 
30 | Cc1cc(Nc2cc(C(F)(F)F)ccn2)nc(-c2cnn(C3CCC(C(N)=O)c4ccccc43)c2)c1 (stereo not drawn) [Example 6.14, 4-[4-(4-methyl-6-{[4-(trifluoro-methyl)-pyridin-2-yl]amino}-pyridin-2-yl)-1H-pyrazol-1-yl]-1,2,3,4-tetrahydro-naphthalene-1-carboxamide] | ≥ 7.00 | 
31 | Cc1cc(Nc2cc(C(F)(F)F)ccn2)nc(-c2cnn(C[C@H](O)C(N)=O)c2)c1 [Example 6.15, (2S)-2-hydroxy-3-[4-(4-methyl-6-{[4-(trifluoro-methyl)-pyridin-2-yl]amino}-pyridin-2-yl)-1H-pyrazol-1-yl]-propanamide] | ≥ 7.00 | 
32 | Cc1cc(Nc2cc(C(F)(F)F)ccn2)nc(-c2cnn(CC(O)c3ccc(C(N)=O)cc3)c2)c1 (stereo not drawn) [Example 6.16, 4-{1-hydroxy-2-[4-(4-methyl-6-{[4-(trifluoromethyl)-pyridin-2-yl]amino}-pyridin-2-yl)-1H-pyrazol-1-yl]ethyl}-benzamide] | ≥ 7.00 | 
